Measured values taken from patent publication US9695155B2, “Herbicidal substituted pyrimidinyloxy benzene compounds” (E. I. DU PONT DE NEMOURS AND COMPANY, priority 2013, dated 2017).

Assays:
[1] = system: Italian ryegrass; assay: Test A preemergence; assay type: in vivo, Lolium multiflorum; details: 0 to 100 scale where 0 is no effect and 100 is complete control; for Plant response rating, Ryegrass, Italian: 125 g ai/ha; for Ryegrass, Italian plant response rating: 500 g ai/ha
How it was run: (§1)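 Compounds in non-phytotoxic solvent with surfactant applied as soil spray preemergence, or postemergence to plants 2-10 cm at one- to two-leaf stage, in loam/sand. After approximately 10 days in greenhouse, injury rated visually versus untreated controls, 0 (no effect) to 100 (complete control).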

[2] = system: ragweed; assay: Test A postemergence; assay type: in vivo, Ambrosia elatior; details: 0 to 100 scale where 0 is no effect and 100 is complete control; for Ragweed plant response rating: 125 g ai/ha; for Plant response rating, Ragweed: 500 g ai/ha
How it was run: as §1

[3] = system: barnyardgrass; assay: Test A postemergence; assay type: in vivo, Echinochloa crus-galli; details: 0 to 100 scale where 0 is no effect and 100 is complete control; for Barnyardgrass plant response rating: 125 g ai/ha; for Plant response rating, Barnyardgrass: 500 g ai/ha
How it was run: as §1

[4] = system: barnyardgrass; assay: Test A preemergence; assay type: in vivo, Echinochloa crus-galli; details: 0 to 100 scale where 0 is no effect and 100 is complete control; for Plant response rating, Barnyardgrass: 125 g ai/ha; for Barnyardgrass plant response rating: 500 g ai/ha
How it was run: as §1

[5] = system: kochia; assay: Test A preemergence; assay type: in vivo, Kochia scoparia; details: 0 to 100 scale where 0 is no effect and 100 is complete control; for Plant response rating, Kochia: 125 g ai/ha; for Kochia plant response rating: 500 g ai/ha
How it was run: as §1

[6] = system: Heteranthera limosa; assay: Test B flooded paddy test; assay type: in vivo; details: Flood, 250 g ai/ha; 0 to 100 scale where 0 is no effect and 100 is complete control
How it was run: (§2)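 Evaluation is visual, against untreated controls, 13 to 15 days after treatment. Before treatment, plants reached the 2-leaf stage; pots were then flooded 3 cm deep, compound was added to the water, and that level was maintained. Ratings run 0 to 100, with 100 meaning complete control.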

[7] = system: rice; assay: Test B flooded paddy test; assay type: in vivo, Oryza sativa; details: Flood, 250 g ai/ha; 0 to 100 scale where 0 is no effect and 100 is complete control
How it was run: as §2

[8] = system: Italian ryegrass; assay: Test A postemergence; assay type: in vivo, Lolium multiflorum; details: 0 to 100 scale where 0 is no effect and 100 is complete control; for Ryegrass, Italian plant response rating: 125 g ai/ha; for Plant response rating, Ryegrass, Italian: 500 g ai/ha
How it was run: as §1

[9] = system: galium; assay: Test A postemergence; assay type: in vivo, Galium aparine; details: 0 to 100 scale where 0 is no effect and 100 is complete control; for Galium plant response rating: 125 g ai/ha; for Plant response rating, Galium: 500 g ai/ha
How it was run: as §1

[10] = system: corn; assay: Test A postemergence; assay type: in vivo, Zea mays; details: 0 to 100 scale where 0 is no effect and 100 is complete control; for Corn plant response rating: 125 g ai/ha; for Plant response rating, Corn: 500 g ai/ha
How it was run: as §1

[11] = system: ragweed; assay: Test A preemergence; assay type: in vivo, Ambrosia elatior; details: 0 to 100 scale where 0 is no effect and 100 is complete control; for Plant response rating, Ragweed: 125 g ai/ha; for Ragweed plant response rating: 500 g ai/ha
How it was run: as §1

[12] = system: sedge, umbrella; assay: Test B flooded paddy test; assay type: in vivo, Cyperus difformis; details: Flood, 250 g ai/ha; 0 to 100 scale where 0 is no effect and 100 is complete control
How it was run: as §2

[13] = system: giant foxtail; assay: Test A preemergence; assay type: in vivo, Setaria faberii; details: 0 to 100 scale where 0 is no effect and 100 is complete control; for Plant response rating, Foxtail, Giant: 125 g ai/ha; for Foxtail, Giant plant response rating: 500 g ai/ha
How it was run: as §1

[14] = system: blackgrass; assay: Test A postemergence; assay type: in vivo, Alopecurus myosuroides; details: 0 to 100 scale where 0 is no effect and 100 is complete control; for Blackgrass plant response rating: 125 g ai/ha; for Plant response rating, Blackgrass: 500 g ai/ha
How it was run: as §1

[15] = system: wheat; assay: Test A postemergence; assay type: in vivo, Triticum aestivum; details: 0 to 100 scale where 0 is no effect and 100 is complete control; for Wheat plant response rating: 125 g ai/ha; for Plant response rating, Wheat: 500 g ai/ha
How it was run: as §1

[16] = system: barnyardgrass; assay: Test B flooded paddy test; assay type: in vivo, Echinochloa crus-galli; details: Flood, 250 g ai/ha; 0 to 100 scale where 0 is no effect and 100 is complete control
How it was run: as §2

[17] = system: pigweed; assay: Test A postemergence; assay type: in vivo, Amaranthus retroflexus; details: 0 to 100 scale where 0 is no effect and 100 is complete control; for Pigweed plant response rating: 125 g ai/ha; for Plant response rating, Pigweed: 500 g ai/ha
How it was run: as §1

[18] = system: giant foxtail; assay: Test A postemergence; assay type: in vivo, Setaria faberii; details: 0 to 100 scale where 0 is no effect and 100 is complete control; for Foxtail, Giant plant response rating: 125 g ai/ha; for Plant response rating, Foxtail, Giant: 500 g ai/ha
How it was run: as §1

[19] = system: kochia; assay: Test A postemergence; assay type: in vivo, Kochia scoparia; details: 0 to 100 scale where 0 is no effect and 100 is complete control; for Kochia plant response rating: 125 g ai/ha; for Plant response rating, Kochia: 500 g ai/ha
How it was run: as §1

[20] = system: pigweed; assay: Test A preemergence; assay type: in vivo, Amaranthus retroflexus; details: 0 to 100 scale where 0 is no effect and 100 is complete control; for Plant response rating, Pigweed: 125 g ai/ha; for Pigweed plant response rating: 500 g ai/ha
How it was run: as §1

| Compound | Plant response rating, Ryegrass, Italian [1] | Ryegrass, Italian plant response rating [1] | Ragweed plant response rating [2] | Plant response rating, Ragweed [2] | Barnyardgrass plant response rating [3] | Plant response rating, Barnyardgrass [3] | Plant response rating, Barnyardgrass [4] | Barnyardgrass plant response rating [4] | Plant response rating, Kochia [5] | Kochia plant response rating [5] | Plant response rating, Ducksalad [6] | Plant response rating, Rice [7] | Ryegrass, Italian plant response rating [8] | Plant response rating, Ryegrass, Italian [8] | Galium plant response rating [9] | Plant response rating, Galium [9] | Corn plant response rating [10] | Plant response rating, Corn [10] | Plant response rating, Ragweed [11] | Ragweed plant response rating [11] | other results |
| --- | --- | --- | --- | --- | --- | --- | --- | --- | --- | --- | --- | --- | --- | --- | --- | --- | --- | --- | --- | --- | --- |
| CCCc1cnc(Oc2cccc(C#N)c2-n2cc(Br)cn2)nc1 [Compound 131] | 0 | 0 | 0 | 0 | 0 | 0 | 0 | 0 | 0 | 0 | 0 | 0 | 0 | 0 | 0 | 0 | 0 | 0 | 0 | 0 | Plant response rating, Sedge, Umbrella [12]: 0; Plant response rating, Foxtail, Giant [13]: 0; Foxtail, Giant plant response rating [13]: 0; Blackgrass plant response rating [14]: 0; Plant response rating, Blackgrass [14]: 0; Wheat plant response rating [15]: 0; Plant response rating, Wheat [15]: 0; Plant response rating, Barnyardgrass [16]: 0; Pigweed plant response rating [17]: 0; Plant response rating, Pigweed [17]: 0; Foxtail, Giant plant response rating [18]: 0; Plant response rating, Foxtail, Giant [18]: 0; Kochia plant response rating [19]: 0; Plant response rating, Kochia [19]: 0; Plant response rating, Pigweed [20]: 0; Pigweed plant response rating [20]: 0 |
| CS(=O)(=O)c1cccc(Oc2ncc(Cl)cn2)c1-n1cc(Br)cn1 [Compound 142] | 0 | 0 | 0 | 0 | 0 | 0 | 0 | 0 | 0 | 50 | 0 | 0 | 0 | 0 | 0 | 0 | 0 | 0 | 0 | 20 | Plant response rating, Sedge, Umbrella [12]: 0; Plant response rating, Foxtail, Giant [13]: 0; Foxtail, Giant plant response rating [13]: 0; Blackgrass plant response rating [14]: 0; Plant response rating, Blackgrass [14]: 0; Wheat plant response rating [15]: 0; Plant response rating, Wheat [15]: 0; Plant response rating, Barnyardgrass [16]: 0; Pigweed plant response rating [17]: 0; Plant response rating, Pigweed [17]: 0; Foxtail, Giant plant response rating [18]: 0; Plant response rating, Foxtail, Giant [18]: 0; Kochia plant response rating [19]: 0; Plant response rating, Kochia [19]: 70; Plant response rating, Pigweed [20]: 0; Pigweed plant response rating [20]: 0 |
